Results reported in PubChem BioAssay (NCI).
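At the GI50, growth is halved. TGI denotes the concentration required for complete inhibition of growth.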

How the values were obtained:
Assay in all cases: NCI anticancer screen, dose series, 384-well format
[1] = tested on: 786-0 renal
[2] = tested on: A498 renal
[3] = tested on: A549 NSCLC
[4] = tested on: ACHN renal
[5] = tested on: BT-549 breast
[6] = tested on: CAKI-1 renal
[7] = tested on: CCRF-CEM leukemia
[8] = tested on: DU-145 prostate
[9] = tested on: EKVX NSCLC
[10] = tested on: HCT-116 colon
[11] = tested on: HCT-15 colon
[12] = tested on: HL-60(TB) leukemia
[13] = tested on: HOP-62 NSCLC
[14] = tested on: HOP-92 NSCLC
[15] = tested on: HS 578T breast
[16] = tested on: HT29 colon
[17] = tested on: IGROV1 ovarian
[18] = tested on: K-562 leukemia
[19] = tested on: KM12 colon
[20] = tested on: LOX IMVI melanoma
[21] = tested on: M14 melanoma
[22] = tested on: MALME-3M melanoma
[23] = tested on: MCF7 breast
[24] = tested on: MDA-MB-231 breast
[25] = tested on: MDA-MB-435 melanoma
[26] = tested on: MDA-MB-468 breast
[27] = tested on: MOLT-4 leukemia
[28] = tested on: NCI-H226 lung
[29] = tested on: NCI-H23 lung
[30] = tested on: NCI-H322M lung
[31] = tested on: NCI-H522 lung
[32] = tested on: NCI/ADR-RES ovarian
[33] = tested on: OVCAR-3 ovarian
[34] = tested on: OVCAR-4 ovarian
[35] = tested on: OVCAR-5 ovarian
[36] = tested on: OVCAR-8 ovarian
[37] = tested on: PC-3 prostate
[38] = tested on: RPMI-8226 leukemia
[39] = tested on: RXF 393 renal
[40] = tested on: SF-268 CNS
[41] = tested on: SF-295 CNS
[42] = tested on: SF-539 CNS
[43] = tested on: SK-MEL-2 melanoma
[44] = tested on: SK-MEL-28 melanoma
[45] = tested on: SK-OV-3 ovarian
[46] = tested on: SN12C renal
[47] = tested on: SNB-19 CNS
[48] = tested on: SNB-75 CNS
[49] = tested on: SW-620 colon
[50] = tested on: T-47D breast
[51] = tested on: TK-10 renal
[52] = tested on: U251 glioblastoma
[53] = tested on: UACC-257 melanoma
[54] = tested on: UACC-62 melanoma
[55] = tested on: UO-31 renal
[56] = tested on: COLO 205 colon
[57] = tested on: HCC-2998 colon
[58] = tested on: NCI-H460 NSCLC
[59] = tested on: SK-MEL-5 melanoma
[60] = tested on: SR leukemia

## Cn1nnc2c(C(N)=O)ncn2c1=O
[1]
  GI50: > 100 µM
  TGI: > 100 µM
[2]
  GI50: > 100 µM
  TGI: > 100 µM
[3]
  GI50: > 100 µM
  TGI: > 100 µM
[4]
  GI50: > 100 µM
  TGI: > 100 µM
[5]
  GI50: > 100 µM
  TGI: > 100 µM
[6]
  GI50: > 100 µM
  TGI: > 100 µM
[7]
  GI50: > 100 µM
  TGI: > 100 µM
[8]
  GI50: > 100 µM
  TGI: > 100 µM
[9]
  GI50: > 100 µM
  TGI: > 100 µM
[10]
  GI50: > 100 µM
  TGI: > 100 µM
[11]
  GI50: > 100 µM
  TGI: > 100 µM
[12]
  GI50: > 100 µM
  TGI: > 100 µM
[13]
  GI50: > 100 µM
  TGI: > 100 µM
[14]
  GI50: > 100 µM
  TGI: > 100 µM
[15]
  GI50: > 100 µM
  TGI: > 100 µM
[16]
  GI50: > 100 µM
  TGI: > 100 µM
[17]
  GI50: > 100 µM
  TGI: > 100 µM
[18]
  GI50: > 100 µM
  TGI: > 100 µM
[19]
  GI50: > 100 µM
  TGI: > 100 µM
[20]
  GI50: > 100 µM
  TGI: > 100 µM
[21]
  GI50: > 100 µM
  TGI: > 100 µM
[22]
  GI50: > 100 µM
  TGI: > 100 µM
[23]
  GI50: > 100 µM
  TGI: > 100 µM
[24]
  GI50: > 100 µM
  TGI: > 100 µM
[25]
  GI50: > 100 µM
  TGI: > 100 µM
[26]
  GI50: > 100 µM
  TGI: > 100 µM
[27]
  GI50: > 100 µM
  TGI: > 100 µM
[28]
  GI50: > 100 µM
  TGI: > 100 µM
[29]
  GI50: > 100 µM
  TGI: > 100 µM
[30]
  GI50: > 100 µM
  TGI: > 100 µM
[31]
  GI50: > 100 µM
  TGI: > 100 µM
[32]
  GI50: > 100 µM
  TGI: > 100 µM
[33]
  GI50: > 100 µM
  TGI: > 100 µM
[34]
  GI50: > 100 µM
  TGI: > 100 µM
[35]
  GI50: > 100 µM
  TGI: > 100 µM
[36]
  GI50: > 100 µM
  TGI: > 100 µM
[37]
  GI50: > 100 µM
  TGI: > 100 µM
[38]
  GI50: > 100 µM
  TGI: > 100 µM
[39]
  GI50: > 100 µM
  TGI: > 100 µM
[40]
  GI50: > 100 µM
  TGI: > 100 µM
[41]
  GI50: > 100 µM
  TGI: > 100 µM
[42]
  GI50: > 100 µM
  TGI: > 100 µM
[43]
  GI50: > 100 µM
  TGI: > 100 µM
[44]
  GI50: > 100 µM
  TGI: > 100 µM
[45]
  GI50: > 100 µM
  TGI: > 100 µM
[46]
  GI50: > 100 µM
  TGI: > 100 µM
[47]
  GI50: > 100 µM
  TGI: > 100 µM
[48]
  GI50: > 100 µM
  TGI: > 100 µM
[49]
  GI50: > 100 µM
  TGI: > 100 µM
[50]
  GI50: > 100 µM
  TGI: > 100 µM
[51]
  GI50: > 100 µM
  TGI: > 100 µM
[52]
  GI50: > 100 µM
  TGI: > 100 µM
[53]
  GI50: > 100 µM
  TGI: > 100 µM
[54]
  GI50: > 100 µM
  TGI: > 100 µM
[55]
  GI50: > 100 µM
  TGI: > 100 µM

## CN(c1ccc(C#N)c(Cl)c1)C1CCC(NC(=O)c2ccc(N3CCN(C4CN(c5ccc6c(c5)C(=O)N(C5CCC(=O)NC5=O)C6=O)C4)CC3)cc2)CC1 (configuration not stated)
[1]
  GI50: > 100 µM
  TGI: > 100 µM
[2]
  GI50: > 100 µM
  TGI: > 100 µM
[3]
  GI50: > 100 µM
  TGI: > 100 µM
[4]
  GI50: > 100 µM
  TGI: > 100 µM
[5]
  GI50: > 100 µM
  TGI: > 100 µM
[6]
  GI50: > 100 µM
  TGI: > 100 µM
[7]
  GI50: > 100 µM
  TGI: > 100 µM
[56]
  GI50: > 100 µM
  TGI: > 100 µM
[8]
  GI50: > 100 µM
  TGI: > 100 µM
[57]
  GI50: > 100 µM
  TGI: > 100 µM
[10]
  GI50: > 100 µM
  TGI: > 100 µM
[11]
  GI50: > 100 µM
  TGI: > 100 µM
[12]
  GI50: > 100 µM
  TGI: > 100 µM
[13]
  GI50: > 100 µM
  TGI: > 100 µM
[14]
  GI50: > 100 µM
  TGI: > 100 µM
[16]
  GI50: > 100 µM
  TGI: > 100 µM
[17]
  GI50: > 100 µM
  TGI: > 100 µM
[18]
  GI50: > 100 µM
  TGI: > 100 µM
[19]
  GI50: > 100 µM
  TGI: > 100 µM
[20]
  GI50: > 100 µM
  TGI: > 100 µM
[21]
  GI50: > 100 µM
  TGI: > 100 µM
[22]
  GI50: > 100 µM
  TGI: > 100 µM
[23]
  GI50: > 100 µM
  TGI: > 100 µM
[24]
  GI50: > 100 µM
  TGI: > 100 µM
[25]
  GI50: > 100 µM
  TGI: > 100 µM
[26]
  GI50: > 100 µM
  TGI: > 100 µM
[27]
  GI50: > 100 µM
  TGI: > 100 µM
[28]
  GI50: > 100 µM
  TGI: > 100 µM
[29]
  GI50: > 100 µM
  TGI: > 100 µM
[30]
  GI50: > 100 µM
  TGI: > 100 µM
[58]
  GI50: > 100 µM
  TGI: > 100 µM
[31]
  GI50: > 100 µM
  TGI: > 100 µM
[32]
  GI50: > 100 µM
  TGI: > 100 µM
[33]
  GI50: > 100 µM
  TGI: > 100 µM
[34]
  GI50: > 100 µM
  TGI: > 100 µM
[35]
  GI50: > 100 µM
  TGI: > 100 µM
[36]
  GI50: > 100 µM
  TGI: > 100 µM
[37]
  GI50: > 100 µM
  TGI: > 100 µM
[39]
  GI50: > 100 µM
  TGI: > 100 µM
[40]
  GI50: > 100 µM
  TGI: > 100 µM
[41]
  GI50: > 100 µM
  TGI: > 100 µM
[42]
  GI50: > 100 µM
  TGI: > 100 µM
[43]
  GI50: > 100 µM
  TGI: > 100 µM
[44]
  GI50: > 100 µM
  TGI: > 100 µM
[59]
  GI50: > 100 µM
  TGI: > 100 µM
[45]
  GI50: > 100 µM
  TGI: > 100 µM
[46]
  GI50: > 100 µM
  TGI: > 100 µM
[47]
  GI50: > 100 µM
  TGI: > 100 µM
[60]
  GI50: > 100 µM
  TGI: > 100 µM
[49]
  GI50: > 100 µM
  TGI: > 100 µM
[50]
  GI50: > 100 µM
  TGI: > 100 µM
[51]
  GI50: > 100 µM
  TGI: > 100 µM
[52]
  GI50: > 100 µM
  TGI: > 100 µM
[53]
  GI50: > 100 µM
  TGI: > 100 µM
[54]
  GI50: > 100 µM
  TGI: > 100 µM
[55]
  GI50: > 100 µM
  TGI: > 100 µM
